# Reference: patent publication US20260265238A1, “COMPOUNDS AND PHARMACEUTICAL COMPOSITIONS THAT DEGRADE SWI/SNF-RELATED MATRIX-ASSOCIATED ACTIN-DEPENDENT REGULATOR OF CHROMATIN SUBFAMILY A” (Plexium, Inc., priority 2023, published 2026)
# Key:
# [1] = molecular target: T1, SMARCA2-HiBiT HeLa cells (protein which is expressed from the SMARCA2 gene) (Homo sapiens, UniProt P51531); test: SMARCA2 degradation assay (HiBiT-fusion HeLa cell line, 24 h, luminescence); type: cell-based
# T1 construct: protein which is expressed from the SMARCA2 and SMARCA4 genes; host or cells: HeLa (SMARCA2-HiBiT engineered line)
# T1 sequence (P51531 whole entry, the tested form may be a part): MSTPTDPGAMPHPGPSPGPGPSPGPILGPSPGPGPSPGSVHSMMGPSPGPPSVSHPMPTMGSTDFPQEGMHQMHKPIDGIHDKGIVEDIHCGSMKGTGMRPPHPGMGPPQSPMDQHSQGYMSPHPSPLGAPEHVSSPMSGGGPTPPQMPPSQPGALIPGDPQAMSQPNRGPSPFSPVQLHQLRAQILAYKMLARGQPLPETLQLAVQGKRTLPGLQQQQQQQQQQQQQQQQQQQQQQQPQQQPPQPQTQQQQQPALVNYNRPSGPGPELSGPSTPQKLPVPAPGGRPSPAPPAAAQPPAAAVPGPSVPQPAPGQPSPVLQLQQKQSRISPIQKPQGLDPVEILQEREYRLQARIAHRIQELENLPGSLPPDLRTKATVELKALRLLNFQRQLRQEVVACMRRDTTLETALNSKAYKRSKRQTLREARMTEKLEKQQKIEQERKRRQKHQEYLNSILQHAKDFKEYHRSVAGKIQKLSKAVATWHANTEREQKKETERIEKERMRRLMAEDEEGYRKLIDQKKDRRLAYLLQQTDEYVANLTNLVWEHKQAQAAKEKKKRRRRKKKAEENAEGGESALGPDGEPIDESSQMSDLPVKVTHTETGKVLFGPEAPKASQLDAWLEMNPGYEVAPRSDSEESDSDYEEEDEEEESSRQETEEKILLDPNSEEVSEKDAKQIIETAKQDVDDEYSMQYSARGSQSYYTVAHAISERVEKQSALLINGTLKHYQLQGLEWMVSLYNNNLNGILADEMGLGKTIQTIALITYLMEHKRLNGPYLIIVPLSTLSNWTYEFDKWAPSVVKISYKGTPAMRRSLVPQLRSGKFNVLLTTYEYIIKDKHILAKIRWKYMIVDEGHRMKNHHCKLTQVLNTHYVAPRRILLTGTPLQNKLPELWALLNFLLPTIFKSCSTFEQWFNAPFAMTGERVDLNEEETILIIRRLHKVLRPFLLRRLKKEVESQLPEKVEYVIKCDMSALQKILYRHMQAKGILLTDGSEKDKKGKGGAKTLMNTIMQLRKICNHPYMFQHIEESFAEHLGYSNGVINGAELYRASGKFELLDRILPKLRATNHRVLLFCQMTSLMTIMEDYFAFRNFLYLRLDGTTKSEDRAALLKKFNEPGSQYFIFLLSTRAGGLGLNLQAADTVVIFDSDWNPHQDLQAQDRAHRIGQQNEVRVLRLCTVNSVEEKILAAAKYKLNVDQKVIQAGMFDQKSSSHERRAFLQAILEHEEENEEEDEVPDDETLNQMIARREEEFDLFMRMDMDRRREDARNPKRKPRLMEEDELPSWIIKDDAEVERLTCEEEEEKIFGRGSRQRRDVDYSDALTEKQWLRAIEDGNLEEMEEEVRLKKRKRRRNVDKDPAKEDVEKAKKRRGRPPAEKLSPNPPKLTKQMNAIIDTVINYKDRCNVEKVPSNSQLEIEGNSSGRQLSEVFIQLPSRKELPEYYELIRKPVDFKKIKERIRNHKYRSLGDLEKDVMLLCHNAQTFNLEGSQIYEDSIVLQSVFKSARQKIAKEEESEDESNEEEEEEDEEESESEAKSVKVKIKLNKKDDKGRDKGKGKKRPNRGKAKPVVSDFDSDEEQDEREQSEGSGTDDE
# In short: (§1)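 SMARCA2- or SMARCA4-HiBiT HeLa cells seeded overnight at 37° C, then given compound as a 10-point dilution (typically 10 μM to 300 pM) for 24 h at 37° C. Protein level read by HiBiT lytic detection luminescence; DC50 from dose-response curves; degradation also scored at 1 μM.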
# [2] = molecular target: T2, SMARCA4-HiBiT HeLa cells (protein which is expressed from the SMARCA4 gene) (Homo sapiens, UniProt P51532); test: SMARCA4 degradation assay (HiBiT-fusion HeLa cell line, 24 h, luminescence); type: cell-based
# T2 construct: protein which is expressed from the SMARCA2 and SMARCA4 genes; host or cells: HeLa (SMARCA4-HiBiT engineered line)
# T2 sequence (P51532 whole entry, the tested form may be a part): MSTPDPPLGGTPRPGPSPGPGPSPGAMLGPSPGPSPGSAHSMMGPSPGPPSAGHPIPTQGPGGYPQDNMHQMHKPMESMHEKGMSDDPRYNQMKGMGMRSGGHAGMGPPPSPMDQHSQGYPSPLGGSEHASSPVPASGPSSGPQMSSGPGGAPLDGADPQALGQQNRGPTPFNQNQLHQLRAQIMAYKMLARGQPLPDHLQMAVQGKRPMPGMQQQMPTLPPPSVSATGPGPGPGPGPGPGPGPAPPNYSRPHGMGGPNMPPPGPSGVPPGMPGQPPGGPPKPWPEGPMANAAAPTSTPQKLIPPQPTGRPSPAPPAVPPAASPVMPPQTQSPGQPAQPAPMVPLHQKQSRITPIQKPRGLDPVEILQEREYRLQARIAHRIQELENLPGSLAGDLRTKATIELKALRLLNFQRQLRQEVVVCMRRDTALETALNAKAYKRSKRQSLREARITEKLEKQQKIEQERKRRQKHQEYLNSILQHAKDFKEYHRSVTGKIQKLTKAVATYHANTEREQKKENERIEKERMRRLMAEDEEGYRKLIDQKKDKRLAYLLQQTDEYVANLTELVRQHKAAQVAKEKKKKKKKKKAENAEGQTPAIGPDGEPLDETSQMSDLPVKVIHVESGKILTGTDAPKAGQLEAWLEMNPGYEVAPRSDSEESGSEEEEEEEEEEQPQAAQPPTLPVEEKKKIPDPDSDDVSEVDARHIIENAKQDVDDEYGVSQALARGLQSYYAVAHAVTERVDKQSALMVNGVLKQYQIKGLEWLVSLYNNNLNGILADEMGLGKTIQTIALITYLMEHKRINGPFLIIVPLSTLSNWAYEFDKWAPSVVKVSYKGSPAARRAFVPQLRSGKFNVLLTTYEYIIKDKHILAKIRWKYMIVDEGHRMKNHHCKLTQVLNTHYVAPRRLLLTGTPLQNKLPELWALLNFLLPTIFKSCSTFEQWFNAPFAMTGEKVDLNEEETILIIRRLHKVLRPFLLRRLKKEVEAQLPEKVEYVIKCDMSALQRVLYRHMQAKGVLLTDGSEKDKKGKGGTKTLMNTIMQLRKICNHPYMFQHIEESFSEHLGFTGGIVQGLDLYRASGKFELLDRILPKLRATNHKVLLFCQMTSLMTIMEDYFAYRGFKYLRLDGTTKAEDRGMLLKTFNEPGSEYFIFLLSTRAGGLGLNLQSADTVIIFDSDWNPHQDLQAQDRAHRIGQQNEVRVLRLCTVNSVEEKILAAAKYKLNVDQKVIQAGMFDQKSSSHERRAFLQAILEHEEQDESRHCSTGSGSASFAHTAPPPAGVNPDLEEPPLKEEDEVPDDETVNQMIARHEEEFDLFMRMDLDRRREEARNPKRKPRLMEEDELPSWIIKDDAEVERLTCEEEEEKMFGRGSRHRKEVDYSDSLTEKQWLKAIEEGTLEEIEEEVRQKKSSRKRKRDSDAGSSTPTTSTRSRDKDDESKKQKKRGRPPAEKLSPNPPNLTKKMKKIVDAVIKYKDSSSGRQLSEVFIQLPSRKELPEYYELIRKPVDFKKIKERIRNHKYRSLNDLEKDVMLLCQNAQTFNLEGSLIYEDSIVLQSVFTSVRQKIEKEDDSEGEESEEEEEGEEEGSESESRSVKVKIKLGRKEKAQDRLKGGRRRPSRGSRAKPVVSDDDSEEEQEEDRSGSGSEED
# In short: as §1
smiles,measurement,setting,value
"CC1CCN(c2cc(-c3ccccc3O)nnc2N)CCN1c1ccnc(C#CCNC(=O)c2cc3ncccn3n2)n1 (stereo not drawn) [Compound P-46, N-(3-(4-(4-(3-amino-6-(2-hydroxyphenyl)pyridazin-4-yl)-7-methyl-1,4-diazepan-1-yl)pyrimidin-2-yl)prop-2-yn-1-yl)pyrazolo[1,5-a]pyrimidine-2-carboxamide]",DC50,[1],50 to 500 nM
same,SMARCA2 % Degradation @ 1 μM,[1]; @ 1 μM,+++ (+++=>70%)
same,DC50,[2],50 to 500 nM
same,inhibition at 1 µM,[2]; @ 1 μM,> 70%
"C[C@@H]1CCN(c2cc(-c3ccccc3O)nnc2N)CCN1c1ccnc(C#CC2CCC2)c1 [Compound P-388, 0-(5-{(R)-4-[2-(2-cyclobutylethynyl)-4-pyridyl]-5-methyl-1,4-diazepan-1-yl}-6-amino-3-pyridazinyl)phenol]",DC50,[1],50 to 500 nM
same,SMARCA2 % Degradation @ 1 μM,[1]; 1 μM,++ (++=30-70%)
same,DC50,[2],500 to 5000 nM
same,inhibition at 1 µM,[2]; 1 μM,30 to 70%
"Nc1nnc(-c2ccccc2O)cc1N1CCN(c2ccnc(C#CCNC(=O)c3cnc4ccccc4n3)n2)CC1 [Compound P-72, N-(3-(4-(4-(3-amino-6-(2-hydroxyphenyl)pyridazin-4-yl)piperazin-1-yl)pyrimidin-2-yl)prop-2-yn-1-yl)quinoxaline-2-carboxamide]",DC50,[1],< 50 nM
same,SMARCA2 % Degradation @ 1 μM,[1]; @ 1 μM,++ (++=30-70%)
same,DC50,[2],< 50 nM
same,inhibition at 1 µM,[2]; @ 1 μM,30 to 70%
"Cc1nn2ccn(CC#Cc3nccc(N4CC5CCC(C4)N5c4cc(-c5ccccc5O)nnc4N)n3)c(=O)c2c1C [Compound P-282, 5-[3-(4-{8-[3-amino-6-(o-hydroxyphenyl)-4-pyridaziny1]-3,8-diazabicyclo[3.2.1]oct-3-yl}-2-pyrimidinyl)-2-propynyl]-2,3-dimethyl-1,5,7a-triaza-4(5H)-indenone]",DC50,[1],50 to 500 nM
same,SMARCA2 % Degradation @ 1 μM,[1]; @ 1 μM,++ (++=30-70%)
same,DC50,[2],50 to 500 nM
same,inhibition at 1 µM,[2]; @ 1 μM,30 to 70%
"CN(C)CC#Cc1nccc(N2C3CCC2CN(c2cnnc(-c4ccccc4O)c2)C3)n1 [Compound P-381, 0-[5-(8-{2-[3-(dimethylamino)-1-propynyl]-4-pyrimidinyl}-3,8-diazabicyclo[3.2.1]oct-3-yl)-3-pyridazinyl]phenol]",DC50,[1],50 to 500 nM
same,SMARCA2 % Degradation @ 1 μM,[1]; 1 μM,++ (++=30-70%)
same,DC50,[2],> 5000 nM
"C[C@@H]1CCN(c2cc(-c3ccccc3O)nnc2N)CCN1c1ccnc(C#CCN2CCCCC2)n1 [Compound P-335, 0-(5-{(R)-5-methyl-4-[2-(3-piperidino-1-propynyl)-4-pyrimidinyl]-1,4-diazepan-1-y1}-6-amino-3-pyridazinyl)phenol]",DC50,[1],< 50 nM
same,SMARCA2 % Degradation @ 1 μM,[1]; @ 1 μM,++ (++=30-70%)
same,DC50,[2],< 50 nM
same,inhibition at 1 µM,[2]; @ 1 μM,30 to 70%
"C[C@@H]1CCN(c2cc(-c3ccccc3O)nnc2N)CCN1c1ccnc(C#CC2CC(F)(F)C2)c1 [Compound P-396, 0-{5-[(R)-4-{2-[2-(3,3-difluorocyclobutyl)ethynyl]-4-pyridyl}-5-methyl-1,4-diazepan-1-yl]-6-amino-3-pyridazinyl}phenol]",DC50,[1],50 to 500 nM
same,SMARCA2 % Degradation @ 1 μM,[1]; 1 μM,+++ (+++=>70%)
same,DC50,[2],50 to 500 nM
same,inhibition at 1 µM,[2]; 1 μM,30 to 70%
Nc1nnc(-c2ccccc2O)cc1N1CC2CCC(C1)N2c1ccnc(C#CCn2ccnc2)n1 [Compound P-290],DC50,[1],50 to 500 nM
same,SMARCA2 % Degradation @ 1 μM,[1]; @ 1 μM,++ (++=30-70%)
same,DC50,[2],50 to 500 nM
same,inhibition at 1 µM,[2]; @ 1 μM,< 30%
"CC1CN(c2cc(-c3ccccc3O)nnc2N)CCN1c1ccnc(C#CCNC(=O)c2cc3ncccn3n2)n1 (stereo in doubt) [Compound P-81, (R)-N-(3-(4-(4-(3-amino-6-(2-hydroxyphenyl)pyridazin-4-yl)-2-methylpiperazin-1-yl)pyrimidin-2-yl)prop-2-yn-1-yl)pyrazolo[1,5-a]pyrimidine-2-carboxamide]",DC50,[1],50 to 500 nM
same,SMARCA2 % Degradation @ 1 μM,[1]; @ 1 μM,++ (++=30-70%)
same,DC50,[2],< 50 nM
same,inhibition at 1 µM,[2]; @ 1 μM,30 to 70%
C[C@@H]1CCN(c2cc(-c3ccccc3O)nnc2N)CCN1c1ccnc(C#CCNC(=O)OC(C)(C)C)n1 [Compound P-238],DC50,[1],50 to 500 nM
same,SMARCA2 % Degradation @ 1 μM,[1]; @ 1 μM,+++ (+++=>70%)
same,DC50,[2],50 to 500 nM
same,inhibition at 1 µM,[2]; @ 1 μM,30 to 70%
"Nc1nnc(-c2ccccc2O)cc1N1CCC2C1CCN2c1ccnc(C#CCNC(=O)c2cc3ncccn3n2)n1 (stereo not drawn) [Compound P-77, N-(3-(4-(4-(3-amino-6-(2-hydroxyphenyl)pyridazin-4-yl)hexahydropyrrolo[3,2-b]pyrrol-1(2H)-yl)pyrimidin-2-yl)prop-2-yn-1-yl)pyrazolo[1,5-a]pyrimidine-2-carboxamide]",DC50,[1],500 to 5000 nM
same,SMARCA2 % Degradation @ 1 μM,[1]; @ 1 μM,+ (+=<30%)
same,DC50,[2],50 to 500 nM
same,inhibition at 1 µM,[2]; @ 1 μM,30 to 70%
"CN(C)CC#Cc1nccc(N2CCCN(c3cc(-c4ccccc4O)nnc3N)CC2)n1 [Compound P-152, 2-(6-amino-5-(4-(2-(3-(dimethylamino)prop-1-yn-1-yl)pyrimidin-4-yl)-1,4-diazepan-1-yl)pyridazin-3-yl)phenol]",DC50,[1],50 to 500 nM
same,SMARCA2 % Degradation @ 1 μM,[1]; @ 1 μM,+++ (+++=>70%)
same,DC50,[2],50 to 500 nM
same,inhibition at 1 µM,[2]; @ 1 μM,30 to 70%
"C[C@@H]1CCN(c2cc(-c3ccccc3O)nnc2N)CCN1c1ccnc(/C=C/CN(C)C)n1 [Compound P-218, o-{5-[(R)-4-{2-[(E)-3-(dimethylamino)-1-propenyl]-4-pyrimidinyl}-5-methyl-1,4-diazepan-1-yl]-6-amino-3-pyridazinyl}phenol]",DC50,[1],50 to 500 nM
same,SMARCA2 % Degradation @ 1 μM,[1]; @ 1 μM,+++ (+++=>70%)
same,DC50,[2],50 to 500 nM
same,inhibition at 1 µM,[2]; @ 1 μM,30 to 70%
"Nc1nnc(-c2ccccc2O)cc1N1CCCN(c2ccnc(C#CCO)n2)CC1 [Compound P-125, 2-(6-amino-5-(4-(2-(3-hydroxyprop-1-yn-1-yl)pyrimidin-4-yl)-1,4-diazepan-1-yl)pyridazin-3-yl)phenol]",DC50,[1],50 to 500 nM
same,SMARCA2 % Degradation @ 1 μM,[1]; @ 1 μM,++ (++=30-70%)
same,DC50,[2],50 to 500 nM
same,inhibition at 1 µM,[2]; @ 1 μM,30 to 70%
"C[C@@H]1CN(c2ccnc(C#CCNC(=O)c3cc4ncccn4n3)n2)C[C@@H](C)N1c1cc(-c2ccccc2O)nnc1N [Compound P-82, N-(3-(4-((3R,5R)-4-(3-amino-6-(2-hydroxyphenyl)pyridazin-4-yl)-3,5-dimethylpiperazin-1-yl)pyrimidin-2-yl)prop-2-yn-1-yl)pyrazolo[1,5-a]pyrimidine-2-carboxamide]",DC50,[1],500 to 5000 nM
same,SMARCA2 % Degradation @ 1 μM,[1]; @ 1 μM,+ (+=<30%)
same,DC50,[2],500 to 5000 nM
same,inhibition at 1 µM,[2]; @ 1 μM,< 30%
"Nc1nnc(-c2ccccc2O)cc1N1CC2(CCN(c3ccnc(C#CCNC(=O)c4cc5ncccn5n4)n3)CC2)C1 [Compound P-31, N-(3-(4-(2-(3-amino-6-(2-hydroxyphenyl)pyridazin-4-yl)-2,7-diazaspiro[3.5]nonan-7-yl)pyrimidin-2-yl)prop-2-yn-1-yl)pyrazolo[1,5-a]pyrimidine-2-carboxamide]",DC50,[1],50 to 500 nM
same,SMARCA2 % Degradation @ 1 μM,[1]; @ 1 μM,++ (++=30-70%)
same,DC50,[2],50 to 500 nM
same,inhibition at 1 µM,[2]; @ 1 μM,30 to 70%
"Nc1nnc(-c2ccccc2O)cc1N1CCC2(CCN(c3ccnc(C#CCn4ccnc4)n3)CC2)C1 [Compound P-253, o-[6-amino-5-(8-{2-[3-(1-imidazolyl)-1-propynyl]-4-pyrimidinyl}-2,8-diaza-2-spiro [4.5]decyl)-3-pyridazinyl]phenol]",DC50,[1],50 to 500 nM
same,SMARCA2 % Degradation @ 1 μM,[1]; @ 1 μM,++ (++=30-70%)
same,DC50,[2],50 to 500 nM
same,inhibition at 1 µM,[2]; @ 1 μM,30 to 70%
"Nc1nnc(-c2ccccc2O)cc1N1CCN(c2ccnc(C#CCCCNC(=O)c3cc4ncccn4n3)n2)CC1 [Compound P-92, N-(5-(4-(4-(3-amino-6-(2-hydroxyphenyl)pyridazin-4-yl)piperazin-1-yl)pyrimidin-2-yl)pent-4-yn-1-yl)pyrazolo[1,5-a]pyrimidinc-2-carboxamidc]",DC50,[1],50 to 500 nM
same,SMARCA2 % Degradation @ 1 μM,[1]; @ 1 μM,+ (+=<30%)
same,DC50,[2],50 to 500 nM
same,inhibition at 1 µM,[2]; @ 1 μM,30 to 70%
"CC1CN(c2ccnc(C#CCNC(=O)c3cc4ncccn4n3)n2)CCCN1c1cc(-c2ccccc2O)nnc1N (stereo not drawn) [Compound P-29, N-(3-(4-(4-(3-amino-6-(2-hydroxyphenyl)pyridazin-4-yl)-3-methyl-1,4-diazepan-1-yl)pyrimidin-2-yl)prop-2-yn-1-yl)pyrazolo[1,5-a]pyrimidine-2-carboxamide]",DC50,[1],50 to 500 nM
same,SMARCA2 % Degradation @ 1 μM,[1]; @ 1 μM,+++ (+++=>70%)
same,DC50,[2],50 to 500 nM
same,inhibition at 1 µM,[2]; @ 1 μM,> 70%
"Nc1nnc(-c2ccccc2O)cc1N1CCCN(c2ccnc(C#CCN3CCOC4(CCCC4)C3)n2)CC1 [Compound P-370, 0-{6-amino-5-[4-(2-{3-(6-oxa-9-aza-9-spiro[4.5]decyl)-1-propynyl}-4-pyrimidinyl)-1,4-diazepan-1-yl]-3-pyridazinyl}phenol]",DC50,[1],50 to 500 nM
same,SMARCA2 % Degradation @ 1 μM,[1]; @ 1 μM,+++ (+++=>70%)
same,DC50,[2],50 to 500 nM
same,inhibition at 1 µM,[2]; @ 1 μM,30 to 70%
"Nc1nnc(-c2ccccc2O)cc1N1CC[C@@H]2[C@H]1CN2c1ccnc(C#CCNC(=O)c2cc3ncccn3n2)n1 [Compound P-47, N-(3-(4-((1R,5R)-2-(3-amino-6-(2-hydroxyphenyl)pyridazin-4-yl)-2,6-diazabicyclo[3.2.0]heptan-6-yl)pyrimidin-2-yl)prop-2-yn-1-yl)pyrazolo[1,5-a]pyrimidine-2-carboxamide]",DC50,[1],500 to 5000 nM
same,SMARCA2 % Degradation @ 1 μM,[1]; @ 1 μM,+ (+=<30%)
same,DC50,[2],500 to 5000 nM
same,inhibition at 1 µM,[2]; @ 1 μM,< 30%
"Cc1c(C(=O)NCC#Cc2nccc(N3CCN(c4cc(-c5ccccc5O)nnc4N)CC3)n2)nn(C)c1C [Compound P-8, N-[3-(4-{4-[3-amino-6-(2-hydroxyphenyl)pyridazin-4-yl]piperazin-1-yl}pyrimidin-2-yl)prop-2-yn-1-yl]-1,4,5-trimethyl-1H-pyrazole-3-carboxamide]",DC50,[1],50 to 500 nM
same,SMARCA2 % Degradation @ 1 μM,[1]; @ 1 μM,++ (++=30-70%)
same,DC50,[2],< 50 nM
same,inhibition at 1 µM,[2]; @ 1 μM,30 to 70%
